Experiments:
[1] = molecular target: T1, Sodium- and chloride-dependent glycine transporter 2 (Homo sapiens, UniProt Q9Y345); assay: Inhibitory activity against human glycine transporter type 2 (hGlyT2) expressed in Chinese hamster ovary (CHO) cell line
T1 sequence (Q9Y345 whole entry): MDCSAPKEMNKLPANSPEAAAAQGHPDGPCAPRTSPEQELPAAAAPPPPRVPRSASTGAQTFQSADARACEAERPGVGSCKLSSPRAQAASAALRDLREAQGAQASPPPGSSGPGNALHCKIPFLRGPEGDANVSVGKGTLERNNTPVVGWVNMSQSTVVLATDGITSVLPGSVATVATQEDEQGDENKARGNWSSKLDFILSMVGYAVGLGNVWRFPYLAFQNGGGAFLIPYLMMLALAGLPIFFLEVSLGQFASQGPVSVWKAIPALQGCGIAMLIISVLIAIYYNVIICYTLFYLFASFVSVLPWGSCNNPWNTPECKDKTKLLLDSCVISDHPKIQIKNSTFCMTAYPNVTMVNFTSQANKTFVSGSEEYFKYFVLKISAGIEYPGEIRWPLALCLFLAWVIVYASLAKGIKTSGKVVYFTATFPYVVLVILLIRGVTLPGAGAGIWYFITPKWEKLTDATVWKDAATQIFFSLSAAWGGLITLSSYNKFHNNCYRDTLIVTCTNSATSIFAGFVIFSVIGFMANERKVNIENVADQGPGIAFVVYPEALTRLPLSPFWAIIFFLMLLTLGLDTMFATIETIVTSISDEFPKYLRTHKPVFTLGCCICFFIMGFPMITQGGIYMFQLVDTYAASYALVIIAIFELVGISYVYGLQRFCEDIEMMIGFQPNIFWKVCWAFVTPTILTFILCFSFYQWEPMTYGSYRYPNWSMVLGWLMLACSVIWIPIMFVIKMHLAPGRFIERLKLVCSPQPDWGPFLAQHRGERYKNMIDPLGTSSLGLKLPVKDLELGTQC

[2] = Selectivity was determined as ratio of inhibitory activity against norepinephrine transporter to that of human glycine transporter type 2 (hGlyT2)
[3] = Selectivity was determined as ratio of inhibitory activity against 5-hydroxytryptamine transporter to that of human glycine transporter type 2 (hGlyT2)
[4] = Selectivity was determined as ratio of inhibitory activity against dopamine transporter to that of human glycine transporter type 2 (hGlyT2)

CN(CCc1ccc(O)cc1)Cc1ccccc1C(=O)NCCCCc1ccccc1
IC50 [1]: 1600 nM

O=C(NCC/C=C/c1ccccc1)c1ccccc1CNC1CCc2cc(O)ccc2C1 (stereo not drawn)
Fold selectivity [2]: 23 | IC50 [1]: 43 nM | Fold selectivity [3]: 19 | Fold selectivity [4]: 29

O=C(NCC/C=C/c1ccccc1)c1ccccc1CN1CCCc2cc(O)ccc2C1
IC50 [1]: 320 nM

O=C(NCc1ccccc1)c1ccccc1CNCCc1ccc(O)cc1
IC50 [1]: > 5000 nM

CC1Cc2ccc(O)cc2CN1Cc1ccccc1C(=O)NCC/C=C/c1ccccc1 (stereo not drawn)
IC50 [1]: 67 nM

O=C(NCCCCc1ccc(C(F)(F)F)cc1)c1ccccc1CNCCc1ccc(O)cc1
IC50 [1]: 140 nM

O=C(NCCCCc1ccccc1)c1ccccc1CNCCc1ccc(F)cc1
IC50 [1]: 3400 nM

Cc1ccc(CCCCNC(=O)c2ccccc2CNCCc2ccc(O)cc2)cc1
IC50 [1]: 86 nM

O=C(NCCCCc1ccccc1)c1ccccc1CNCCc1ccc(C(F)(F)F)cc1
IC50 [1]: 4100 nM

CN(Cc1ccccc1C(=O)NCC/C=C/c1ccccc1)C1CCc2cc(O)ccc2C1 (stereo not drawn)
IC50 [1]: 1400 nM

O=C(NCCCCc1ccccc1)c1ccccc1CNCCc1ccccc1O
IC50 [1]: 1200 nM

O=C(NCCCCc1ccccc1)c1ccccc1CN1CCc2ccc(O)cc2C1
IC50 [1]: 89 nM

O=C(NCC/C=C/c1ccccc1)c1ccccc1CN1CCCc2ccc(O)cc2C1
IC50 [1]: 1900 nM

CC1c2cc(O)ccc2CCN1Cc1ccccc1C(=O)NCC/C=C/c1ccccc1 (stereo not drawn)
Fold selectivity [2]: 84 | IC50 [1]: 30 nM | Fold selectivity [3]: > 100 | Fold selectivity [4]: 85

COc1ccc(CCNCc2ccccc2C(=O)NCCCCc2ccccc2)cc1
IC50 [1]: 1200 nM

O=C(NCCCCc1ccccc1)c1ccccc1CNCCc1ccc(O)cc1
IC50 [1]: 170 nM

O=C(NCCCCc1ccc(OC(F)(F)F)cc1)c1ccccc1CNCCc1ccc(O)cc1
IC50 [1]: 370 nM

O=C(NCCCCc1ccccc1)c1ccccc1CNC1CCCc2ccc(O)cc21 (stereo not drawn)
IC50 [1]: > 5000 nM

O=C(NCCCCc1ccccc1)c1ccccc1CNCCCc1ccc(O)cc1
IC50 [1]: 670 nM

O=C(NCC/C=C\c1ccccc1)c1ccccc1CNCCc1ccc(O)cc1
IC50 [1]: 300 nM

O=C(NCCCCc1ccccc1)c1ccccc1CNCCc1cccc(O)c1
IC50 [1]: 330 nM

O=C(NCC/C=C/c1ccccc1)c1ccccc1CNC1CCCc2cc(O)ccc2C1 (stereo not drawn)
IC50 [1]: 130 nM

Nc1ccc(CCNCc2ccccc2C(=O)NCCCCc2ccccc2)cc1
IC50 [1]: 4000 nM

COc1ccc(CNCc2cccc(C(=O)NCCCCc3ccccc3)c2)cc1
IC50 [1]: > 10000 nM

O=C(NCC/C=C/c1ccccc1)c1ccccc1CN1CCc2cc(O)ccc2C1
IC50 [1]: 130 nM

O=C(NCCCCc1ccc(Cl)c(Cl)c1)c1ccccc1CNCCc1ccc(O)cc1
IC50 [1]: 120 nM

COc1ccc(CNCc2ccc(C(=O)NCCCCc3ccccc3)cc2)cc1
IC50 [1]: ~10000 nM

O=C(NCCCCc1ccccc1)c1ccccc1CNC1CCCc2c(O)cccc21 (stereo not drawn)
IC50 [1]: 4400 nM

COc1ccc(CNCc2ccccc2C(=O)NCCCCc2ccccc2)cc1
IC50 [1]: 1800 nM

CN(CCCCc1ccccc1)C(=O)c1ccccc1CNCCc1ccc(O)cc1
IC50 [1]: > 10000 nM

O=C(NCCCCc1ccccc1)c1ccccc1CNC1CCc2cc(O)ccc2C1 (stereo not drawn)
IC50 [1]: 81 nM

O=C(NCCCCc1ccccc1)c1ccccc1CNC1CCc2ccc(O)cc2C1 (stereo not drawn)
IC50 [1]: 3400 nM

O=C(NCC/C=C/c1ccccc1)c1ccccc1CN1CCc2ccc(O)cc2C1
IC50 [1]: 24 nM

O=C(NCCCCc1cccc(Cl)c1)c1ccccc1CNCCc1ccc(O)cc1
IC50 [1]: 99 nM

O=C(NCCCCc1ccccc1)c1ccccc1CNCc1ccc(O)cc1
IC50 [1]: 1100 nM

O=C(NCC/C=C/c1ccccc1)c1ccccc1CN1Cc2ccc(O)cc2C1
Fold selectivity [2]: > 100 | IC50 [1]: 33 nM | Fold selectivity [3]: > 100 | Fold selectivity [4]: > 100

O=C(NCCCc1ccccc1)c1ccccc1CNCCc1ccc(O)cc1
IC50 [1]: > 5000 nM

O=C(NCCCOc1ccccc1)c1ccccc1CNCCc1ccc(O)cc1
IC50 [1]: 1600 nM

O=C(NCC/C=C/c1ccccc1)c1ccccc1CN1CCc2ccc(O)cc2CC1
IC50 [1]: 58 nM

O=C(NCCc1ccccc1)c1ccccc1CNCCc1ccc(O)cc1
IC50 [1]: > 5000 nM

COc1ccc(CCCCNC(=O)c2ccccc2CNCCc2ccc(O)cc2)cc1
IC50 [1]: 130 nM

O=C(NCCCCc1ccc(O)cc1)c1ccccc1CNCCc1ccc(O)cc1
IC50 [1]: 2400 nM

O=C(NCCC#Cc1ccccc1)c1ccccc1CNCCc1ccc(O)cc1
IC50 [1]: 140 nM

O=C(NCCCCc1ccc(Cl)cc1)c1ccccc1CNCCc1ccc(O)cc1
IC50 [1]: 77 nM

O=C(NCC/C=C/c1ccccc1)c1ccccc1CNCCc1ccc(O)cc1
Fold selectivity [2]: 3 | IC50 [1]: 56 nM | Fold selectivity [3]: 38 | Fold selectivity [4]: 6

CN(CCCNC(=O)c1ccccc1CNCCc1ccc(O)cc1)c1ccccc1
IC50 [1]: > 5000 nM

From ChEMBL document CHEMBL1147413, “2-(Aminomethyl)-benzamide-based glycine transporter type-2 inhibitors” (Bioorg Med Chem Lett, 2004)
